# Measurements as given in US7510836B2, “Alpha arteether resistance domain” (priority 2003, dated 2009).
# Key:
# E. coli DH5α = assay: Phenotype of strain (resistance or sensitivity); assay type: cell-based, Escherichia coli; set-up: key to Phenotype: R: resistance; S: sensitivity; settings: for Sensitivity or resistance of the strain (words): E.coli DH5a (gyrA 96; Asp87Asn)
# Description: (§1) As a result of this mutation, the said strain is also resistant to a drug called nalidixic acid.
# (§2) To ascertain the involvement of gyrA mutation, another E.coli strain NK 5819 which is also GyrA″ and nalidixic acid resistant was tested for arteether sensitivity. As expected, strain NK5819 was also sensitive only to a-isomer of arteether. […] The assays for arteether sensitivity was performed by the standard single disk diffusion method (Bauer et al, 1966). As a next step, we isolated gyrA mutants of E.coli strain CA 8000, which is otherwise Gyr+ and nalidixic acid sensitive. The gyrA mutants of CA8000 were isolated as nalidixic acid resistant colonies (20 ug/ml), after mutagenic treatment with NTG ([…]). The isolated CA8000 gyrA mutants were also sensitive only to a isomer of arteether. […] To define precisely the involvement of gyr genes only in the a-arteether sensitivity, we utilised two recombinant clones (pMK 90 and pMK47 containing functional gyr A and gyrB genes respectively) in trans-complementation assays. For this purpose, we mobilized the plasmid clones into the E.coli gyr mutant strains. The resulting transformants were now nalidixic acid sensitive and a-arteether resistant. This constituted the direct evidence supporting our observation that DNA gyrase enzyme alone is involved in conferring a-arteether sensitivity to E.coli strain. […] DNA gyrase enzyme is essential for the bacterial growth. This enzyme transiently breaks the DNA strands and introduces negative superhelical turns in an ATP-dependent process. The E.coli DNA gyrase enzyme is a tetramer with two subunits A and B. These two subunits are nalidixic acid and coumermycin sensitive respectively (U.S. Pat. No. 6,127,405 and a co-pending patent).
# (§3) The strains of E coli of the investigation, their phenotypes in terms of a-arteether (resistance or sensitivity, superscript R or S) or antibiotic resistance or sensitivity, change in nucleotide position of the gyrase A gene leading to the phenotype, corresponding amino acid change in the protein and the position of amino acid change are being described. Always the phenotype a-arteether resistance is accompanied with quinolone or fluoroquinolone sensitivity and vice versa.
# E. coli ET8000 = assay: Phenotype of strain (resistance or sensitivity); assay type: cell-based, Escherichia coli; set-up: key: R: resistance; S: sensitivity; settings: gyrA GAC-AAC(259), Asp-Asn 87
# Excerpt: as §3
# E. coli NK5819 = assay: Phenotype of strain (resistance or sensitivity); assay type: cell-based, Escherichia coli; set-up: key to Phenotype: R: resistance; S: sensitivity
# Description: as §2, §3
# E. coli CA8001 = assay: Phenotype of strain (resistance or sensitivity); assay type: cell-based, Escherichia coli; set-up: key: R: resistance; S: sensitivity; settings: gyrA GGT-TGT(241), Gly-Cys 81
# Excerpt: (§4) In order to develop an arteether resistant mutants from an arteether sensitive strains a reverse strategy was applied. Quinoline/fluoroquinolone (Q/FQs) resistant strains were developed spontaneously i.e. screening overnight log phase culture of the Quinolone/fluoroquinolone sensitive i.e. arteether resistant strain (E coli CA 8000) on the poison agar plate of the Q/FQs. The Q/FQ resistant mutants which appeared on the poison agar plates were first purified through single colony purification and then checked for their arteether sensitivity. These arteether sensitive mutants on the contrary when checked for their Q/Fqs resistance they show different level of Q/FQs resistance.
# as §3
# E. coli CA8002 = assay: Phenotype of strain (resistance or sensitivity); assay type: cell-based, Escherichia coli; set-up: key: R: resistance; S: sensitivity; settings: gyrA GGT-TGT(241), Gly-Cys 81
# Excerpt: as §4, §3
# E. coli CA8003 = assay: Phenotype of strain (resistance or sensitivity); assay type: cell-based, Escherichia coli; set-up: key: R: resistance; S: sensitivity; settings: gyrA GAC-GGC(260), Asp-Gly 87
# Excerpt: as §4, §3
# E. coli CA8005 = assay: Phenotype of strain (resistance or sensitivity); assay type: cell-based, Escherichia coli; set-up: key: R: resistance; S: sensitivity; settings: gyrA GAC-GGC(260), Asp-Gly 87
# Excerpt: as §4, §3
# E. coli CA8006 = assay: Phenotype of strain (resistance or sensitivity); assay type: cell-based, Escherichia coli; set-up: key: R: resistance; S: sensitivity; settings: gyrA TCG-TTG(248), Ser-Leu 83
# Excerpt: as §4, §3
# E. coli CA8007 = assay: Phenotype of strain (resistance or sensitivity); assay type: cell-based, Escherichia coli; set-up: key: R: resistance; S: sensitivity; settings: gyrA TCG-TTG(248), Ser-Leu 83
# Excerpt: as §4, §3
# E. coli CA8009 = assay: Phenotype of strain (resistance or sensitivity); assay type: cell-based, Escherichia coli; set-up: key: R: resistance; S: sensitivity; settings: gyrA TCG-TTG(248), Ser-Leu 83
# Excerpt: as §4, §3
# E. coli CA8010 = assay: Phenotype of strain (resistance or sensitivity); assay type: cell-based, Escherichia coli; set-up: key: R: resistance; S: sensitivity; settings: gyrA TCG-TTG(248), Ser-Leu 83
# Excerpt: as §4, §3
# E. coli CA8012 = assay: Phenotype of strain (resistance or sensitivity); assay type: cell-based, Escherichia coli; set-up: key: R: resistance; S: sensitivity; settings: gyrA GGT-GAT(242), Gly-Asp 81
# Excerpt: as §4, §3
# [1] = system: E. coli mutant strain AR 9 CA8014; assay: Phenotype of revertant (resistance or sensitivity); assay type: cell-based, Escherichia coli; set-up: key: R: resistance; S: sensitivity; settings: gyrA AAC-GAC(259), Asn-Asp 87
# Excerpt: as §3
# (§5) The commercially available strain E. coli DH5[…] (Stratagene, USA) is sensitive to […]-arteether but resistant to quinolone/fluoroquinolone due to a mutation at 87th aminoacid position of the gyr A protein (Aspartic acid of wild type is changed to Aspargine) with corresponding change in the codon GAC to AAC. This strain was used to screen […]-arteether resistant mutations. The observation was startling as the […]-arteether resistant mutants are the exact reversion at the 87th position of the aminoacid of gyrase A subunit i.e. Aspargine changed to aspartic acid, with corresponding change in the codon AAC to GAC.
# [2] = system: E. coli mutant strain Rev 4; assay: Phenotype of revertant (resistance or sensitivity); assay type: cell-based, Escherichia coli; set-up: key: R: resistance; S: sensitivity; settings: gyrA GAT-GGT(242), Asp-Gly 81
# Excerpt: as §3, §5
# [3] = system: E. coli mutant strain Rev 5; assay: Phenotype of revertant (resistance or sensitivity); assay type: cell-based, Escherichia coli; set-up: key: R: resistance; S: sensitivity; settings: gyrA GAT-GGT(242), Asp-Gly 81
# Excerpt: as §3, §5
# [4] = system: E. coli mutant strain Rev 6; assay: Phenotype of revertant (resistance or sensitivity); assay type: cell-based, Escherichia coli; set-up: key: R: resistance; S: sensitivity; settings: gyrA GAT-GGT(242), Asp-Gly 81
# Excerpt: as §3, §5
# [5] = system: E. coli mutant strain Rev. 1; assay: Phenotype of revertant (resistance or sensitivity); assay type: cell-based, Escherichia coli; set-up: key: R: resistance; S: sensitivity; settings: gyrA GAT-GGT(242), Asp-Gly 81
# Excerpt: as §3, §5
# [6] = system: E. coli mutant strain Rev. 2; assay: Phenotype of revertant (resistance or sensitivity); assay type: cell-based, Escherichia coli; set-up: key: R: resistance; S: sensitivity; settings: gyrA GAT-GGT(242), Asp-Gly 81
# Excerpt: as §3, §5
# [7] = system: E. coli mutant strain Rev. 3; assay: Phenotype of revertant (resistance or sensitivity); assay type: cell-based, Escherichia coli; set-up: key: R: resistance; S: sensitivity; settings: gyrA GAT-GGT(242), Asp-Gly 81
# Excerpt: as §3, §5
# [8] = system: E.coli strain MTCC 482 (GyrB, defective in DNA gyrase B subunit); assay: Arteether sensitivity, single disk diffusion; assay type: cell-based, Escherichia coli; settings: E.coli MTCC 482 (gyrB)
# Description: as §2, with “This enzyme transiently breaks the DNA strands and introduces negative superhelical turns in an ATP-dependent process. The E.coli DNA gyrase enzyme is a tetramer with two subunits A and B. These two subunits are nalidixic acid and coumermycin sensitive respectively (U.S. Pat. No. 6,127,405 and a co-pending patent).” left out
# [9] = system: gyrA mutants of E.coli strain CA 8000 (nalidixic acid resistant colonies after NTG); assay: Arteether sensitivity, single disk diffusion; assay type: cell-based, Escherichia coli; settings: isolated CA8000 gyrA mutants
# Description: as §2, with “This enzyme transiently breaks the DNA strands and introduces negative superhelical turns in an ATP-dependent process. The E.coli DNA gyrase enzyme is a tetramer with two subunits A and B. These two subunits are nalidixic acid and coumermycin sensitive respectively (U.S. Pat. No. 6,127,405 and a co-pending patent).” left out
# [10] = system: E.coli gyr mutant strains transformed with pMK 90 and pMK47 (functional gyr A and gyrB genes); assay: Trans-complementation assay; assay type: cell-based, Escherichia coli; settings: gyr mutant strains carrying pMK 90 / pMK47
# Description: as §2, with “This enzyme transiently breaks the DNA strands and introduces negative superhelical turns in an ATP-dependent process. The E.coli DNA gyrase enzyme is a tetramer with two subunits A and B. These two subunits are nalidixic acid and coumermycin sensitive respectively (U.S. Pat. No. 6,127,405 and a co-pending patent).” left out
# [11] = system: E.coli strains which do not carry gyr mutation (wild type strains); assay: Arteether sensitivity of strains without gyr mutation; assay type: cell-based, Escherichia coli
# Description: as §1
# To ascertain the involvement of gyrA mutation, another E.coli strain NK 5819 which is also GyrA″ and nalidixic acid resistant was tested for arteether sensitivity. As expected, strain NK5819 was also sensitive only to a-isomer of arteether. […] The assays for arteether sensitivity was performed by the standard single disk diffusion method (Bauer et al, 1966). As a next step, we isolated gyrA mutants of E.coli strain CA 8000, which is otherwise Gyr+ and nalidixic acid sensitive. The gyrA mutants of CA8000 were isolated as nalidixic acid resistant colonies (20 ug/ml), after mutagenic treatment with NTG ([…]). The isolated CA8000 gyrA mutants were also sensitive only to a isomer of arteether. […] To define precisely the involvement of gyr genes only in the a-arteether sensitivity, we utilised two recombinant clones (pMK 90 and pMK47 containing functional gyr A and gyrB genes respectively) in trans-complementation assays. For this purpose, we mobilized the plasmid clones into the E.coli gyr mutant strains. The resulting transformants were now nalidixic acid sensitive and a-arteether resistant. This constituted the direct evidence supporting our observation that DNA gyrase enzyme alone is involved in conferring a-arteether sensitivity to E.coli strain. […]
# [12] = system: E.coli strains which do not carry gyr mutation (wild type strains); settings: U.S. Pat. No. 6,127,405; cited from earlier work
# [13] = system: gyr mutant strains of E.coli; settings: U.S. Pat. No. 6,127,405; cited from earlier work
smiles,measurement,setting,value
"CCO[C@@H]1O[C@@H]2O[C@]3(C)CC[C@H]4[C@H](C)CC[C@@H]([C@H]1C)[C@@]24OO3 [a-arteether, α-arteether]",Phenotype,"E. coli DH5α; DH5α, gyrA GAC-AAC(259), Asp-Asn 87",S
same,Sensitivity or resistance of the strain (words),E. coli DH5α; listed as a isomer of arteether,able to inhibit the growth
same,Sensitivity or resistance of the strain (words),E. coli DH5α; listed as α-arteether,sensitive
same,Sensitivity or resistance of the strain (words),E. coli DH5α; listed as […]-arteether,sensitive
same,Phenotype,E. coli ET8000,S
same,Sensitivity or resistance of the strain (words),E. coli NK5819; E.coli NK 5819 (GyrA mutant),sensitive
same,Phenotype,"E. coli NK5819; NK5819, gyrA GAC-TAC(259), Asp-Gly 87",S
same,Phenotype,E. coli CA8001,S
same,Phenotype,E. coli CA8002,S
same,Phenotype,E. coli CA8003,S
same,Phenotype,E. coli CA8005,S
same,Phenotype,E. coli CA8006,S
same,Phenotype,E. coli CA8007,S
same,Phenotype,E. coli CA8009,S
same,Phenotype,E. coli CA8010,S
same,Phenotype,E. coli CA8012,S
same,Phenotype,[1],R
same,Phenotype,[2],R
same,Phenotype,[3],R
same,Phenotype,[4],R
same,Phenotype,[5],R
same,Phenotype,[6],R
same,Phenotype,[7],R
same,Arteether sensitivity,[8],susceptible
same,Arteether sensitivity,[9],sensitive
same,Sensitivity or resistance of transformants,[10],resistant
same,Sensitivity or resistance,[11],invariably resistant
same,Inhibitory activity,[12],ineffective
same,Inhibitory activity,[13],inhibitory
